Reference: US20250170130A1, “MODULATORS OF MYC FAMILY PROTO-ONCOGENE PROTEIN” (Nalo Therapeutics, priority 2022, published 2025)

Assays:
MycC = biological target: T1, MycC (Homo sapiens, UniProt P01106); assay: Degradation of MycC protein in L363 cells, JESS/Western blot of lysates; type: cell-based; conditions: L-363 cells, 24 h; for Dmax at 1 µM / Dmax at 0.5 µM / Dmax at 3 µM / Dmax at 6 µM: L-363, 24 h; for Dmax at 1 µM: read-out: % Degradation of MycC (L-363) 24 h, 1 μM; for Dmax at 0.5 µM: read-out: % Degradation of MycC (L-363) 24 h, 0.5 μM; for Dmax at 3 µM: read-out: % Degradation of MycC (L-363) 24 h, 3 μM; for Dmax at 6 µM: read-out: % Degradation of MycC (L-363) 24 h, 6 μM
T1 construct: endogenous in cells; host or cells: L363
Procedure: For L363 cells (suspension), 1E6 cells were plated into each well of a 6 well plate. For SK-N-BE(2) cells (adherent), 5E5 cells were plated into each well of a 6 well dish. […] All compounds were diluted to 10 mM in DMSO. Cells were treated with the compound for 24 hrs, then for both cell types, media containing cells were removed from wells into a 15 ml centrifuge tube, and remaining adherent SK-N-BE(2) cells were also scraped from the wells into the appropriate tubes. Tubes were centrifuged, cells were washed with PBS then re-centrifuged to pellet cells. A RIPA buffer cocktail was added to the cells on ice for 5 mins. Cell lysates were clarified by centrifugation and stored at −80 degrees until required. BCA assay was performed on each lysate to determine the protein concentration.
(§1) Once an appropriate lysate concentration and antibody concentration was determined, samples were screened in the JESS technology (Protein Simple, San Jose, CA—https://www.proteinsimple.com/jess.html).
(§2) Target protein antibodies (n-myc and c-myc) were detected in the chemi-luminescence channel and loading controls (tubulin and GAPDH) were detected using a Near Infra Red (NIR) labeled secondary antibody.
For SK-N-EB2 adherent cells, 5E5 cells in 1.9 mls media were plated into 6 well dishes and incubated for 24 hrs. […] Cells were scrapped off the plate, centrifuged, washed with PBS, centrifuged, then a RIPA buffer cocktail added to the cells (100 ul), centrifuged and stored at −80 for later analysis. For L363 suspension cells, 1E6 cells were plated into […] (950 ul media) and incubated for 24 hrs. […] Cells were aspirated into tubes, centrifuged, washed with PBS, centrifuged, then a RIPA buffer cocktail added to the cells (100 ul), centrifuged and stored at −80 for later analysis.
(§3) For Western blot, a BCA (total protein) assay was run on all samples, these were then run in batches of 5 compounds plus control (DMSO) on each Western blot run—n-myc and c-myc were run in separate experiments in the chemiluminescence channel. Both tubulin and GAPDH were run as loading controls in all lanes in the near infra red channel.

MycN = biological target: T2, MycN (Homo sapiens, UniProt P04198); assay: Degradation of MycN protein in SK-N-BE(2) cells, JESS/Western blot of lysates; type: cell-based; conditions: SKNBE2 cells, 24 h; for Dmax at 1 µM / Dmax at 3 µM / Dmax at 6 µM / Dmax at 0.5 µM: SKNBE2, 24 h; for Dmax at 1 µM: read-out: % Degradation of MycN (SKNBE2) 24 h, 1 μM; for Dmax at 3 µM: read-out: % Degradation of MycN (SKNBE2) 24 h, 3 μM; for Dmax at 6 µM: read-out: % Degradation of MycN (SKNBE2) 24 h, 6 μM; for Dmax at 0.5 µM: read-out: % Degradation of MycN (SKNBE2) 24 h, 0.5 μM
T2 construct: endogenous in cells; host or cells: SK-N-BE(2)
T2 sequence (P04198 1-464): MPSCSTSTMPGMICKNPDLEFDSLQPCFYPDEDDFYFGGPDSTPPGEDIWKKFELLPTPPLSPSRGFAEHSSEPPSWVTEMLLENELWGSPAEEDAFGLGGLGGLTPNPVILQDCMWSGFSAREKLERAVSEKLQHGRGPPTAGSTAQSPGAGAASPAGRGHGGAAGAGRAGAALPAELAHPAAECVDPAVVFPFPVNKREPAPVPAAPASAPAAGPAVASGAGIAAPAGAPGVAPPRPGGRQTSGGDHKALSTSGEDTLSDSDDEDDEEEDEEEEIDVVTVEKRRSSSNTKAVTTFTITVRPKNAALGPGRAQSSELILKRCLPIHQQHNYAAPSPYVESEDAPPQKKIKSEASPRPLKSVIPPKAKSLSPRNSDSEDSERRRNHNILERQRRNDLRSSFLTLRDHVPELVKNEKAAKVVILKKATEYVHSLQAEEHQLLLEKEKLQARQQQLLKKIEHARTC
Procedure: For L363 cells (suspension), 1E6 cells were plated into each well of a 6 well plate. For SK-N-BE(2) cells (adherent), 5E5 cells were plated into each well of a 6 well dish. Cells were cultured for 24 hrs then treated with exemplary compounds at […] final assay concentrations plus DMSO control. All compounds were diluted to 10 mM in DMSO. Cells were treated with the compound for 24 hrs, then for both cell types, media containing cells were removed from wells into a 15 ml centrifuge tube, and remaining adherent SK-N-BE(2) cells were also scraped from the wells into the appropriate tubes. Tubes were centrifuged, cells were washed with PBS then re-centrifuged to pellet cells. A RIPA buffer cocktail was added to the cells on ice for 5 mins. Cell lysates were clarified by centrifugation and stored at −80 degrees until required. BCA assay was performed on each lysate to determine the protein concentration.
as §1, §2
For SK-N-EB2 adherent cells, 5E5 cells in 1.9 mls media were plated into 6 well dishes and incubated for 24 hrs. Exemplary compounds were added (100 ul, 1 in 20 dilution in media) to each well (final assay concentration 6, 3, 1 and […]) together with DMSO control wells and incubated for 24 hrs. Cells were scrapped off the plate, centrifuged, washed with PBS, centrifuged, then a RIPA buffer cocktail added to the cells (100 ul), centrifuged and stored at −80 for later analysis. For L363 suspension cells, 1E6 cells were plated into 24 well dishes (950 ul media) and incubated for 24 hrs. Exemplary compounds were added (50 ul, 1 in 20 dilution in media) to each well (final assay concentration 6, 3, 1 and […]) together with DMSO control wells and incubated for 24 hrs. Cells were aspirated into tubes, centrifuged, washed with PBS, centrifuged, then a RIPA buffer cocktail added to the cells (100 ul), centrifuged and stored at −80 for later analysis.
as §3

T1 sequence (P01106 whole entry): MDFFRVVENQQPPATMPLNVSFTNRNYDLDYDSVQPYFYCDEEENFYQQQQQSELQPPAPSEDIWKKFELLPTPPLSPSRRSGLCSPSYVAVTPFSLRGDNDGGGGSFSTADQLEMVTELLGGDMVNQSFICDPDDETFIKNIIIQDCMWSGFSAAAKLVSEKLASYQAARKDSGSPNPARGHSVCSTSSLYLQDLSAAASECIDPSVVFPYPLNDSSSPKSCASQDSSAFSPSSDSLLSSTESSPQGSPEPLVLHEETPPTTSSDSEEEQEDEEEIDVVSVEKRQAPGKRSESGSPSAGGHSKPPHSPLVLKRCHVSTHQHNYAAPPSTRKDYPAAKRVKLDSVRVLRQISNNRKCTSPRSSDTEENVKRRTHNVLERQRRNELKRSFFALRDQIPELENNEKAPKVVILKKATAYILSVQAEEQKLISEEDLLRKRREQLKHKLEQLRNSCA

Row | SMILES | Dmax at 1 µM (MycC) [%] | Dmax at 1 µM (MycN) [%] | Dmax at 3 µM (MycN) [%] | Dmax at 6 µM (MycN) [%] | Dmax at 0.5 µM (MycC; 0.5 μM) [%] | Dmax at 3 µM (MycC) [%] | Dmax at 6 µM (MycC; 6 μM) [%] | Dmax at 0.5 µM (MycN) [%] | % Degradation of MycC (L-363) 24 h, 0.5 μM (MycC; 0.5 μM) | % Degradation of MycC (L-363) 24 h, 6 μM (MycC; 6 μM) | % Degradation of MycN (SKNBE2) 24 h, 6 μM (MycN)
1 | c1cc(Nc2cc(C3CC3)[nH]n2)nc(N2CCC(C3CNC3)C2)n1 (racemic) [Compound 39, (±)-2-[3-(azetidin-3-yl)pyrrolidin-1-yl]-N-(5-cyclopropyl-1H-pyrazol-3-yl)pyrimidin-4-amine] | 20 to 49 | < 20 | 20 to 49 | 20 to 49 |  |  |  |  |  |  | 
2 | c1cc(Nc2cc(C3CC3)[nH]n2)nc(N2C[C@H]3CNC[C@@H]3C2)n1 (racemic) [Compound 50, N-(5-Cyclopropyl-1H-pyrazol-3-yl)-2-[rac-(3aR,6aR)-2,3,3a,4,6,6a-hexahydro-1H-pyrrolo[3,4-c]pyrrol-5-yl]pyrimidin-4-amine] | < 20 | 20 to 49 | 50 to 79 | 80 to 100 | 20 to 49 | 20 to 49 | 50 to 79 | 20 to 49 |  |  | 
3 | CC(N)C1CCCN(c2nccc(Nc3cc(C4CC4)[nH]n3)n2)C1 (single isomer, unassigned) [Compound 159, 2-[3-(1-Aminoethyl)-1-piperidyl]-N-(5-cyclopropyl-1H-pyrazol-3-yl)pyrimidin-4-amine] |  |  |  | 80 to 100 | 20 to 49 |  | 80 to 100 |  | ** (degradation 20-49%) | **** (degradation 80-100%) | **** (degradation 80-100%)
4 | CNC(C)C1CCCN(c2nccc(Nc3cc(C4CC4)[nH]n3)n2)C1 (single isomer, unassigned) [Compound 162, N-(5-Cyclopropyl-1H-pyrazol-3-yl)-2-[3-[1-(methylamino)ethyl]-1-piperidyl]pyrimidin-4-amine] | 20 to 49 | 20 to 49 |  | 80 to 100 | 20 to 49 | 20 to 49 |  | 20 to 49 |  |  | **** (degradation 80-100%)
5 | CN(C)C[C@H]1CCN(c2nccc(Nc3cc(C4CC4)[nH]n3)n2)C1 (stereo in doubt) [Compound 32, N-(5-cyclopropyl-1H-pyrazol-3-yl)-2-[rac-(3R)-3-[(dimethylamino)methyl]pyrrolidin-1-yl]pyrimidin-4-amine] | < 20 | 20 to 49 | 50 to 79 | 50 to 79 |  |  | < 20 | 20 to 49 |  |  | 
6 | CN(C)C[C@@H]1CCN(c2nccc(Nc3cc(C4CC4)[nH]n3)n2)C1 (stereo in doubt) [Compound 33, N-(5-Cyclopropyl-1H-pyrazol-3-yl)-2-[rac-(3S)-3-[(dimethylamino)methyl]pyrrolidin-1-yl]pyrimidin-4-amine] |  | 20 to 49 | 50 to 79 | 50 to 79 |  |  |  | 20 to 49 |  |  | 
7 | CNC1CC2(C1)CN(c1nccc(Nc3cc(C4CC4)[nH]n3)n1)C2 [Compound 1, 2-(4-((5-cyclopropyl-1H-pyrazol-3-yl)amino)pyrimidin-2-yl)-N-methyl-2-azaspiro[3.3]heptan-6-amine] |  |  | < 20 | 50 to 79 |  |  | 20 to 49 |  |  |  | 
8 | c1cc(Nc2cc(C3CC3)[nH]n2)nc(N2CCC3(CNC3)C2)n1 [Compound 2, N-(5-cyclopropyl-1H-pyrazol-3-yl)-2-(2,6-diazaspiro[3.4]octan-6-yl)pyrimidin-4-amine] | 20 to 49 | < 20 | < 20 | 50 to 79 | 20 to 49 | 20 to 49 | 20 to 49 | < 20 |  |  | 
9 | CN1CC2(CCN(c3nccc(Nc4cc(C5CC5)[nH]n4)n3)C2)C1 [Compound 3, N-(5-cyclopropyl-1H-pyrazol-3-yl)-2-(2-methyl-2,6-diazaspiro[3.4]octan-6-yl)pyrimidin-4-amine] | 20 to 49 | < 20 | < 20 | 50 to 79 | < 20 |  | 80 to 100 | < 20 |  |  | 
10 | CNCCCNc1nccc(Nc2cc(C3CC3)[nH]n2)n1 [Compound 34, N^4-(5-cyclopropyl-1H-pyrazol-3-yl)-N^2-[3-(methylamino)propyl]pyrimidine-2,4-diamine] |  |  |  | < 20 |  |  |  |  |  |  | 
11 | CN1CC(C2CN(c3nccc(Nc4cc(C5CC5)[nH]n4)n3)C2)C1 [Compound 46, N-(5-Cyclopropyl-1H-pyrazol-3-yl)-2-[3-(1-methylazetidin-3-yl)azetidin-1-yl]pyrimidin-4-amine] |  |  |  | < 20 |  |  |  |  |  |  | 
12 | CN1C[C@@H]2CN(c3nccc(Nc4cc(C5CC5)[nH]n4)n3)C[C@@H]21 [Compound 52, N-(5-cyclopropyl-1H-pyrazol-3-yl)-2-[(1R,5R)-6-methyl-3,6-diazabicyclo[3.2.0]heptan-3-yl]pyrimidin-4-amine] |  |  |  | < 20 |  |  |  |  |  |  | 
13 | OC1CN(CC23CC(C2)N(c2nccc(Nc4cc(C5CCCC5)[nH]n4)n2)C3)C1 [Compound 70] |  | < 20 |  | 20 to 49 |  |  |  |  |  |  | 
14 | CS(=O)(=O)CCCNCC12CC(C1)N(c1nccc(Nc3cc(C4CCCC4)[nH]n3)n1)C2 [Compound 74, N-(5-Cyclopentyl-1H-pyrazol-3-yl)-2-[4-[(3-methylsulfonylpropylamino)methyl]-2-azabicyclo[2.1.1]hexan-2-yl]pyrimidin-4-amine] |  | 20 to 49 | 50 to 79 | 80 to 100 |  |  |  | 20 to 49 |  |  | 
15 | CNC[C@H]1CN(c2nccc(Nc3cc(C4CCCC4)[nH]n3)n2)CCO1 [Compound 190, N-(5-Cyclopentyl-1H-pyrazol-3-yl)-2-[(2S)-2-(methylaminomethyl)morpholin-4-yl]pyrimidin-4-amine] |  | 20 to 49 | 50 to 79 | 50 to 79 |  |  |  | 20 to 49 |  |  | 
